Entries after “also recorded” stand apart in the source; their conditions may differ.
Assays:
Test in all cases: Thermal shift binding assay
[1] = system: RNA3WJ_0.0.0_5IB_3FAM (3WJ_0.0.0_5IB_3FAM RNA construct)
Method in brief: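 A 3WJ RNA construct, 5′-Iowa Black/3′-FAM labelled and annealed (90° C. for 5 min, slow cooling), was tested at 1 μM with 8 μM compound, 1% DMSO, in 10 mM CacoK pH 7.2, 30 mM NaCl. FAM fluorescence (480/510 nm) monitored from 41 to 91° C. at 0.1° C./sec. Compound effect on 3WJ stability taken from Tm shift of melting curves.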

[2] = system: RNA3WJ_3.0.0_5IB_3FAM; conditions: 1 μM RNA, 8 μM compound, 10 mM CacoK pH 7.2, 30 mM NaCl
[3] = system: RNA3WJ_1.0.0_5IB_3FAM (cis 3WJ with one unpaired nucleotide); conditions: 1 μM RNA, 8 μM compound
Excerpt: (§1) Purpose: Test binding of compounds for RNA three way junction (for example, a construct of 38 nt). Thermal shift assay based on established fluorescence quenching assay utilizing FAM as fluorescence tag and Iowa Black as quencher. Tags were attached at the 3′ and 5′ end, respectively. Stable formation of 3WJ upon compound binding would lead to quenching of the FAM fluorescence due to close proximity of the Iowa Black tag. Thermal unfolding leads to increase of fluorescence emission. Assay readout: FAM (465-510 nm) Thermal Shift.
(§2) Assay sample buffer used: 10 mM CacoK pH 7.2, 30 mM NaCl. Buffer preparation in Dnase/Rnase Free distilled water (Gibco Life Technologies).
(§3) Dilute the RNA 1:10 (final 10 μM) in Assay Buffer.
(§4) Heat up the diluted RNA up to 90° C. for 5 min (sealed Eppendorf Tube).
(§5) Cool down the RNA probe slowly to RT.
(§6) Dilute the compounds to 800 μM in DMSO (Assay: 8 μM).
(§7) Final concentrations in the sample: 1 μM RNA, 8 μM compound, 1% DMSO
(§8) Pipet 20 μL Sample Solution into Roche, Light Cycler480 Multiwell Plate96, white, REF 04729692001.
(§9) Measure the 96 plate with the LightCycler480 (Channel: 480/510 nm; Temperature: 41-91° C.).
(§10) Analyse measurement-data with the MeltingCurveGenotyping Mode.
(§11) Settings: Acquisition mode: continuous; Ramp rate: 0.1° C./sec; Acquisition: 6° C.
(§12) Curves are fitted with raw and normalized data.
(§13) Melting curves analysis show melting temperature (Tm) of ˜51° C. Range of RNA concentrations was tested and assay window was determined (conc. range of 0.5-1 μM yields best results). The choice of buffer also affected the Tm. RNA constructs were tested under different buffer conditions (especially in presence of salt) in the thermal shift assay. […] CacoK with 30 mM salt at 1 μM RNA conc. was used to assess compound effects on 3WJ stability. […] These conditions were used for screening test compounds.
(§14) Compounds Ark0000013 and Ark0000014 were also tested in the thermal shift assay against three RNA 3WJ constructs, A) RNA3WJ_1.0.0_5IB_3FAM (cis 3WJ with one unpaired nucleotide); B) Split3WJ.1_up_5IB+Split3WJ.1_down_3FAM (trans 3WJ as 1:1 mix); and C) Split3WJ.2_up_5IB+Split3WJ.2_down_3FAM (trans 3WJ as 1:1 mix).

[4] = system: Split3WJ.1_up_5IB+Split3WJ.1_down_3FAM (trans 3WJ as 1:1 mix; Split3WJ_1); conditions: 1 μM RNA, 8 μM compound, 10 mM CacoK pH 7.2, 30 mM NaCl
Excerpt: as §1, §2, §3, §4, §5, §6, §7, §8, §9, §10, §11, §12, §13, §14

[5] = system: Split3WJ.2_up_5IB+Split3WJ.2_down_3FAM (trans 3WJ as 1:1 mix; Split3WJ_2); conditions: 1 μM RNA, 8 μM compound, 10 mM CacoK pH 7.2, 30 mM NaCl
Excerpt: as §1, §2, §3, §4, §5, §6, §7, §8, §9, §10, §11, §12, §13, §14

[6] = system: RNA3WJ_1.1.0_5IB_3FAM; conditions: 1 μM RNA, 8 μM compound, 10 mM CacoK pH 7.2, 30 mM NaCl
Excerpt: as §1, §2, §3, §4, §5, §6, §7, §8, §9, §10, §11, §12, §13

[7] = system: RNA3WJ_1.1.1_5IB_3FAM; conditions: 1 μM RNA, 8 μM compound, 10 mM CacoK pH 7.2, 30 mM NaCl
Excerpt: as §1, §2, §3, §4, §5, §6, §7, §8, §9, §10, §11, §12, §13

[8] = system: RNA3WJ_2.0.0_5IB_3FAM; conditions: 1 μM RNA, 8 μM compound, 10 mM CacoK pH 7.2, 30 mM NaCl
Excerpt: as §1, §2, §3, §4, §5, §6, §7, §8, §9, §10, §11, §12, §13

[9] = system: RNA3WJ_2.1.0_5IB_3FAM; conditions: 1 μM RNA, 8 μM compound, 10 mM CacoK pH 7.2, 30 mM NaCl
Excerpt: as §1, §2, §3, §4, §5, §6, §7, §8, §9, §10, §11, §12, §13

[10] = 1 μM RNA, 8 μM compound, 10 mM CacoK pH 7.2, 30 mM NaCl

**Q.** `CN(CCCN)CCCNC(=O)c1ccc2c(c1)C1c3cc(C(=O)NCCCN(C)CCCN)ccc3C2c2ccc(C(=O)NCCCN(C)CCCN)cc21` [Ark000013, N^2,N^7,N^15-tris(3-((3-aminopropyl)(methyl)amino)propyl)-9,10-dihydro-9,10-[1,2]benzenoanthracene-2,7,15-tricarboxamide] was tested. Which “Melting temp + cmpd” value [1, 10] did it give?
**A.** 84.1 °C

**Q.** And the “Temp. Shift” value [1, 10]?
**A.** 24.2 °C

**Q.** And the “Melt. Temp. with cmpd” value ([1]; RNA sequence 3WJ_0.0.0_5IB_FAM, melting temperature in presence of compound)?
**A.** 84.1 °C

**Q.** And the “Shift melt. Temp.” value ([1]; RNA sequence 3WJ_0.0.0_5IB_FAM, with cmpd minus without cmpd)?
**A.** +24.2 °C

**Q.** What about the “Melting temp + cmpd” value [2] of the same compound?
**A.** 83.7 °C

**Q.** And the “Temp. Shift” value [2]?
**A.** 21.7 °C

**Q.** And the “effect in the melting curves (in words)” value [3]?
**A.** significantly lower fluorescence signal; also recorded: no proper melting curve

**Q.** And the “Melting temp + cmpd” value ([3]; 10 mM CacoK pH 7.2, 30 mM NaCl)?
**A.** 87.0 °C

**Q.** What about the “Temp. Shift” value ([3]; 10 mM CacoK pH 7.2, 30 mM NaCl) of the same compound?
**A.** 21.4 °C

**Q.** And the “Melting temp + cmpd” value [4]?
**A.** 58.2 °C

**Q.** What about the “Temp. Shift” value [4] of the same compound?
**A.** ~21 °C

**Q.** What about the “Temp. Shift” value ([4]; listed as Ark0000013) of the same compound?
**A.** 20.4 °C

**Q.** And the “Melting temp + cmpd” value [5]?
**A.** 56.9 °C

**Q.** And the “Temp. Shift” value [5]?
**A.** ~13 °C

**Q.** And the “Temp. Shift” value ([5]; listed as Ark0000013)?
**A.** 12.2 °C

**Q.** What about the “Melting temp + cmpd” value [6] of the same compound?
**A.** 85.5 °C

**Q.** And the “Temp. Shift” value [6]?
**A.** 22.2 °C

**Q.** And the “Melting temp + cmpd” value [7]?
**A.** 82.9 °C

**Q.** What about the “Temp. Shift” value [7] of the same compound?
**A.** 20.7 °C

**Q.** What about the “Melting temp + cmpd” value [8] of the same compound?
**A.** 84.3 °C

**Q.** And the “Temp. Shift” value [8]?
**A.** 22.1 °C

**Q.** And the “Melting temp + cmpd” value [9]?
**A.** 45.7 °C

**Q.** And the “Temp. Shift” value [9]?
**A.** 3.8 °C

— patent publication US20220402883A1, “COMPOUNDS AND METHODS FOR MODULATING RNA FUNCTION” (Arrakis Therapeutics, Inc., priority 2016, published 2022)
